pIC50: −log10 of the molar value.
Columns and labels:
Type in all cases: functional, cell-based
HL-60 [1] = assay: In vitro apoptotic activity against HL60 cells after 48 hr of treatment.; conditions: Homo sapiens, HL-60, 48 h
HL-60 [2] = assay: In vitro cytotoxicity against HL60 cells.; conditions: Homo sapiens
K562 [3] = assay: The compound evaluated for apoptotic activity against K562 cells (the results were obtained after 48 hr treatment); conditions: Homo sapiens, K562, 48 h
HL-60 [4] = assay: The compound evaluated for apoptotic activity against multi drug resistant HL60 R cells (the results were obtained after 48 hr treatment); conditions: Homo sapiens, HL-60, 48 h
HuT78 [5] = assay: The compound evaluated for apoptotic activity against multi drug resistant HUT 78 cells (the results were obtained after 48 hr treatment); conditions: Homo sapiens, HuT78, 48 h
HuT78 [6] = assay: The compound evaluated for Cytotoxic activity against multi drug resistant HUT 78 cells (the results were obtained after 48 hr treatment); conditions: Homo sapiens, HuT78, 48 h
K562 [7] = assay: The compound evaluated for Cytotoxic activity against multi drug resistant K562 cells (the results were obtained after 48 hr treatment); conditions: Homo sapiens, K562, 48 h
HL-60 [8] = assay: The compound evaluated for Cytotoxic activity against multi drug resistant HL60R cells (the results were obtained after 48 hr treatment); conditions: Homo sapiens, HL-60, 48 h
HuT78 [9] = assay: The compound evaluated for apoptotic activity against HUT 78 cells (the results were obtained after 48 hr treatment); conditions: Homo sapiens, HuT78, 48 h

| Structure (SMILES) | AC50 (HL-60 [1]) [µM] | pIC50 (HL-60 [2]) | other results |
| --- | --- | --- | --- |
| COc1ccc(/C=C/c2ccc3c(c2)C(C)(C)CCC3(C)C)cc1 | > 100 | 4.30 | – |
| CC1=C(/C=C/C(C)=C/C=C/C(C)=C/C(=O)O)C(C)(C)CCC1 [TRETINOIN] | > 100 | – | – |
| C/C(=C\c1ccc(C(=O)O)cc1)c1ccc2c(c1)C(C)(C)CCC2(C)C | > 100 | 4.34 | – |
| COc1ccc(/C=C\c2ccc3c(c2)C(C)(C)CCC3(C)C)cc1 | > 100 | 4.30 | – |
| C/C(=C\c1ccccc1C(=O)O)c1ccc2c(c1)C(C)(C)CCC2(C)C | > 100 | < 4.00 | – |
| CC1(C)CCC(C)(C)c2cc(/C=C\c3ccc(N)cc3)ccc21 | 38 | 4.74 | AC50 (K562 [3]): > 100 µM; AC50 (HL-60 [4]): > 100 µM; AC50 (HuT78 [5]): > 100 µM; pIC50 (HuT78 [6]): 4.37; pIC50 (K562 [7]): 4.30; pIC50 (HL-60 [8]): 4.60 |
| C/C(=C/c1cccc(C(=O)O)c1)c1ccc2c(c1)C(C)(C)CCC2(C)C | 80 | 4.30 | – |
| C/C(=C/c1ccccc1C(=O)O)c1ccc2c(c1)C(C)(C)CCC2(C)C | 90 | 4.28 | – |
| C/C(=C\c1cccc(C(=O)O)c1)c1ccc2c(c1)C(C)(C)CCC2(C)C | > 100 | < 4.00 | – |
| COc1ccc(/C=C\c2ccc3c(c2)C(C)(C)CCC3(C)C)cc1N | 50 | 4.60 | AC50 (HuT78 [9]): 46 µM; AC50 (K562 [3]): 50 µM; AC50 (HL-60 [4]): 87 µM; pIC50 (HuT78 [6]): 4.66; pIC50 (K562 [7]): 4.38; pIC50 (HL-60 [8]): 4.32 |
| CC1(C)CCC(C)(C)c2cc(/C=C\c3cccc(N)c3)ccc21 | 10 | 5.00 | AC50 (HuT78 [9]): 10 µM; AC50 (K562 [3]): 27 µM; AC50 (HL-60 [4]): 25 µM; pIC50 (HuT78 [6]): 5.30; pIC50 (K562 [7]): 4.89; pIC50 (HL-60 [8]): 4.82 |
| COc1ccc(/C=C(/C)c2ccc3c(c2)C(C)(C)CCC3(C)C)cc1N | 90 | 4.38 | – |
| CC1(C)CCC(C)(C)c2cc(/C=C/c3ccc(N)cc3)ccc21 | 38 | 4.74 | – |
| COc1ccc(/C=C(\C)c2ccc3c(c2)C(C)(C)CCC3(C)C)cc1N | 40 | 4.70 | – |
| C/C(=C/c1ccc(C(=O)O)cc1)c1ccc2c(c1)C(C)(C)CCC2(C)C | 40 | 5.00 | – |
| CC1(C)CCC(C)(C)c2cc(/C=C/c3cccc(N)c3)ccc21 | 40 | 4.70 | – |
| COc1ccc(/C=C/c2ccc3c(c2)C(C)(C)CCC3(C)C)cc1N | 85 | 4.21 | – |
| C/C(=C/c1cc(C(=O)O)no1)c1ccc2c(c1)C(C)(C)CCC2(C)C | 47 | 4.59 | – |

Reference: ChEMBL document CHEMBL1132832, “Programmed cell death (PCD) associated with the stilbene motif of arotinoids: discovery of novel apoptosis inducer agents possessing activity on multidrug resistant tumor cells” (Bioorg Med Chem Lett, 2000)
